Measurements reported in patent publication US20230089867A1, “CYCLIC PENTAMER COMPOUNDS AS PROPROTEIN CONVERTASE SUBTILISIN/KEXIN TYPE 9 (PCSK9) INHIBITORS FOR THE TREATMENT OF METABOLIC DISORDER” (Novartis AG, priority 2018, published 2023).

Target: human PCSK9 (Homo sapiens, UniProt Q8NBP7)
Test: PCSK9 ligand binding TR-FRET assay (interference with binding of human PCSK9 to human LDLR)
Conditions: for Max % inhibition: PCSK9 FRET assay, efficacy (Amax), 100% = 1 uM unlabeled human PCSK9, 0% = DMSO; for IC50: TR-FRET, human PCSK9 Alexa Fluor 647 / human LDLR extracellular domain-Europium Kryptate, read-out: PCSK9 FRET Assay IC50
In short: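 Threefold compound dilutions were pre-incubated 30 min with PCSK9, after which 4 nM Europium Kryptate-tagged human LDLR ectodomain was added for a further 2 h.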

Sequence of human PCSK9 (Q8NBP7 153-692): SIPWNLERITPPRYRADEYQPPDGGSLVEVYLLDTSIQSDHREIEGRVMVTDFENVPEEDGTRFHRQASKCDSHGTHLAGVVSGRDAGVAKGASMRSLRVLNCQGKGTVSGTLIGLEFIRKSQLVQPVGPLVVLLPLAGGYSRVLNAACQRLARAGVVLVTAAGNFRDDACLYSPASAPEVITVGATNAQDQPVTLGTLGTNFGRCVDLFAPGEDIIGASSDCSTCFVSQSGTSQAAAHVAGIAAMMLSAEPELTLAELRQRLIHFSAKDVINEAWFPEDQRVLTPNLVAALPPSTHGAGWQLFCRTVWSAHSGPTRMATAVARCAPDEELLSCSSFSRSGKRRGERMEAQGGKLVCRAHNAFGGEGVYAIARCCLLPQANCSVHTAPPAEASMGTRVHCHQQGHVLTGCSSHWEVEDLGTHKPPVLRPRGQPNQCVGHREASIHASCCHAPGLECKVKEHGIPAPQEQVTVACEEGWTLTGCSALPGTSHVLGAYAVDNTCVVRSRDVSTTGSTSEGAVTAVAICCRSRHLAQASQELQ
Sequence of human PCSK9 (Q8NBP7 31-152 partner limits assumed): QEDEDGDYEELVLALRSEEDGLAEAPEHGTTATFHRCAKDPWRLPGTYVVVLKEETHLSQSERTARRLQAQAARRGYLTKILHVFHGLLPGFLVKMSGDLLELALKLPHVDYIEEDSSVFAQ

Work on `COC[C@@H]1NC(=O)[C@@H](C)N(Cc2ccc(C(F)F)cc2Oc2ccc(-c3cnc(CN(C)C)n3C)cc2)C(=O)C[C@@H](Cc2ccccc2)C(=O)N(C)[C@@H](C)CNC(=O)C[C@H](Cc2ccc(Cl)cc2)N(C)C1=O` [Compound 74, (2R,5S,8S,13S,16R)-16-benzyl-8-(4-chlorobenzyl)-1-(4-(difluoromethyl)-2-(4-(2-((dimethylamino)methyl)-1-methyl-1H-imidazol-5-yl)phenoxy)benzyl)-5-(methoxymethyl)-2,7,13,14-tetramethyl-1,4,7,11,14-pentaazacyclooctadecane-3,6,10,15,18-pentaone] yielded a Max % inhibition of 104.33% and an IC50 of 46.5 nM.
With `COC[C@@H]1NC(=O)[C@H](CCCN)N(Cc2ccc(Cl)cc2Oc2ccc(-c3cnc(CN(C)C)n3C)cc2)C(=O)C[C@@H](Cc2ccccc2)C(=O)N(C)[C@@H](C)CNC(=O)C[C@H](Cc2ccc(Cl)cc2)N(C)C1=O` [Compound 192, (2S,5S,8S,13S,16R)-2-(3-aminopropyl)-16-benzyl-1-(4-chloro-2-(4-(2-((dimethylamino)methyl)-1-methyl-1H-imidazol-5-yl)phenoxy)benzyl)-8-(4-chlorobenzyl)-5-(methoxymethyl)-7,13,14-trimethyl-1,4,7,11,14-pentaazacyclooctadecane-3,6,10,15,18-pentaone] the Max % inhibition was 97.97% and the IC50 was 107 nM.
`COC[C@@H]1NC(=O)[C@H](C)N(Cc2ccc(Cl)cc2Oc2ccc(-c3cnc(CN(C)C)n3C)cc2)C(=O)C[C@@H](C)C(=O)N(C)[C@@H](CC(C)C)CNC(=O)C[C@H](Cc2ccc(Cl)cc2)N(C)C1=O` [Compound 255, (5S,8S,13S,16R)-1-(4-chloro-2-(4-(2-((dimethylamino)methyl)-1-methyl-1H-imidazol-5-yl)phenoxy)benzyl)-8-(4-chlorobenzyl)-13-isobutyl-5-(methoxymethyl)-2,7,14,16-tetramethyl-1,4,7,11,14-pentaazacyclooctadecane-3,6,10,15,18-pentaone] showed a Max % inhibition of 64.95% and an IC50 of 19.7 nM.
For `COC[C@@H]1NC(=O)[C@H](C)N(Cc2ccc(Cl)cc2Oc2ccc(-c3cnc(CN4CCOCC4)n3C)cc2)C(=O)C[C@@H](Cc2ccccc2)C(=O)N(C)[C@@H](C)CNC(=O)C[C@H](Cc2ccc(Cl)cc2)N(C)C1=O` [Compound 205, (2S,5S,8S,13S,16R)-16-benzyl-1-(4-chloro-2-(4-(1-methyl-2-(morpholinomethyl)-1H-imidazol-5-yl)phenoxy)benzyl)-8-(4-chlorobenzyl)-5-(methoxymethyl)-2,7,13,14-tetramethyl-1,4,7,11,14-pentaazacyclooctadecane-3,6,10,15,18-pentaone], the Max % inhibition was 93.20% and the IC50 was 2 nM.
Compound `CCC(O)c1ncc(-c2ccc(Oc3cc(Cl)ccc3CN3C(=O)C[C@@H](Cc4ccccc4)C(=O)N(C)[C@@H](C)CNC(=O)C[C@H](Cc4ccc(Cl)cc4)N(C)C(=O)[C@H](COC)NC(=O)[C@@H]3C)cc2)n1C` (stereo partly drawn) [Compound 151, (2S,5S,8S,13S,16R)-16-benzyl-1-(4-chloro-2-(4-(2-(1-hydroxypropyl)-1-methyl-1H-imidazol-5-yl)phenoxy)benzyl)-8-(4-chlorobenzyl)-5-(methoxymethyl)-2,7,13,14-tetramethyl-1,4,7,11,14-pentaazacyclooctadecane-3,6,10,15,18-pentaone] has a Max % inhibition of 64.23% and an IC50 of 8.8 nM.
For `COC[C@@H]1NC(=O)[C@H](C)N(Cc2ccc(Cl)cc2Oc2ccc(-c3cnc(CN4CCCC4)n3C)c(C)c2)C(=O)C[C@@H](Cc2ccccc2)C(=O)N(C)[C@@H](C)CNC(=O)C[C@H](Cc2ccc(Cl)cc2)N(C)C1=O` [Compound 281, (2S,5S,8S,13S,16R)-16-benzyl-1-(4-chloro-2-(3-methyl-4-(1-methyl-2-(pyrrolidin-1-ylmethyl)-1H-imidazol-5-yl)phenoxy)benzyl)-8-(4-chlorobenzyl)-5-(methoxymethyl)-2,7,13,14-tetramethyl-1,4,7,11,14-pentaazacyclooctadecane-3,6,10,15,18-pentaone], the Max % inhibition was 89.62% and the IC50 was 1 nM.
`COC[C@@H]1NC(=O)[C@H](C)N(Cc2ccc(Cl)cc2Oc2ccc(-c3cnc(CN4CCCC4)n3C)cc2)C(=O)C[C@@H](Cc2cccc(OC(F)(F)F)c2)C(=O)N(C)[C@@H](C)CNC(=O)C[C@H](Cc2ccc(Cl)cc2)N(C)C1=O` [Compound 206, (2S,5S,8S,13S,16R)-1-(4-chloro-2-(4-(1-methyl-2-(pyrrolidin-1-ylmethyl)-1H-imidazol-5-yl)phenoxy)benzyl)-8-(4-chlorobenzyl)-5-(methoxymethyl)-2,7,13,14-tetramethyl-16-(3-(trifluoromethoxy)benzyl)-1,4,7,11,14-pentaazacyclooctadecane-3,6,10,15,18-pentaone] showed a Max % inhibition of 99.72% and an IC50 of 5.8 nM.
Compound `COC[C@@H]1NC(=O)[C@H](CN2CCC2)N(Cc2ccc(Cl)cc2Oc2ccc(-c3cnc(CN(C)C)n3C)cc2)C(=O)C[C@@H](Cc2ccccc2)C(=O)N(C)[C@@H](C)CNC(=O)C[C@H](Cc2ccc(Cl)cc2)N(C)C1=O` [Compound 17, (2S,5S,8S,13S,16R)-2-(azetidin-1-ylmethyl)-16-benzyl-1-(4-chloro-2-(4-(2-((dimethylamino)methyl)-1-methyl-1H-imidazol-5-yl)phenoxy)benzyl)-8-(4-chlorobenzyl)-5-(methoxymethyl)-7,13,14-trimethyl-1,4,7,11,14-pentaazacyclooctadecane-3,6,10,15,18-pentaone] has a Max % inhibition of 81.08% and an IC50 of 61.2 nM.
`COC[C@@H]1NC(=O)[C@H](C)N(Cc2ccc(Cl)cc2Oc2ccc(-c3cnc(CN(C)C)n3C)cc2)C(=O)C[C@@H](Cc2ccccc2)C(=O)N(C)[C@@H](CO)CNC(=O)C[C@H](Cc2ccc(Cl)cc2)N(C)C1=O` [Compound 235, (2S,5S,8S,13R,16R)-16-benzyl-1-(4-chloro-2-(4-(2-((dimethylamino)methyl)-1-methyl-1H-imidazol-5-yl)phenoxy)benzyl)-8-(4-chlorobenzyl)-13-(hydroxymethyl)-5-(methoxymethyl)-2,7,14-trimethyl-1,4,7,11,14-pentaazacyclooctadecane-3,6,10,15,18-pentaone] showed a Max % inhibition of 100.56% and an IC50 of 11.1 nM.
Work on `CCC[C@@H]1CC(=O)N(Cc2ccc(Cl)cc2Oc2ccc(-c3cnc(CN(C)C)n3C)cc2)[C@@H](C)C(=O)N[C@@H](COC)C(=O)N(C)[C@@H](Cc2ccc(Cl)cc2)CC(=O)N[C@H]2CCCC[C@@H]2N(C)C1=O` [Compound 263, (4S,7S,10S,14R,16aS,20aS)-11-(4-chloro-2-(4-(2-((dimethylamino)methyl)-1-methyl-1H-imidazol-5-yl)phenoxy)benzyl)-4-(4-chlorobenzyl)-7-(methoxymethyl)-5,10,16-trimethyl-14-propylhexadecahydrobenzo[l][1,4,7,11,14]pentaazacyclooctadecine-2,6,9,12,15(3H)-pentaone] yielded a Max % inhibition of 76.79% and an IC50 of 5.3 nM.
`COC[C@@H]1NC(=O)[C@H](C)N(Cc2ccc(Cl)cc2Oc2ccc(-c3cnc(CN(C)C)n3C)cc2)C(=O)C[C@@H](Cc2ccccc2)C(=O)N(C)[C@@H](C)CNC(=O)C[C@H](Cc2ccc(Cl)cc2)N(C)C1=O` [Compound 126, (2S,5S,8S,13S,16R)-16-benzyl-1-(4-chloro-2-(4-(2-((dimethylamino)methyl)-1-methyl-1H-imidazol-5-yl)phenoxy)benzyl)-8-(4-chlorobenzyl)-5-(methoxymethyl)-2,7,13,14-tetramethyl-1,4,7,11,14-pentaazacyclooctadecane-3,6,10,15,18-pentaone] showed a Max % inhibition of 101.12% and an IC50 of 1.5 nM.
In the case of `COC[C@@H]1NC(=O)[C@H](C)N(Cc2ccc(Cl)cc2Oc2ccc(-c3cnc(CN(C)C)n3C)cc2)C(=O)C[C@@H](Cn2cccn2)C(=O)N(C)[C@H]2CCCC[C@@H]2NC(=O)C[C@H](Cc2ccc(Cl)cc2)N(C)C1=O` [Compound 253, (4S,7S,10S,16aS,20aS)-14-((1H-pyrazol-1-yl)methyl)-11-(4-chloro-2-(4-(2-((dimethylamino)methyl)-1-methyl-1H-imidazol-5-yl)phenoxy)benzyl)-4-(4-chlorobenzyl)-7-(methoxymethyl)-5,10,16-trimethylhexadecahydrobenzo[l][1,4,7,11,14]pentaazacyclooctadecine-2,6,9,12,15(3H)-pentaone], the Max % inhibition is reported as 98.40% and the IC50 is reported as 1.5 nM.
Work on `COC[C@@H]1NC(=O)[C@H](C)N(Cc2ccc(Cl)cc2Oc2ccc(-c3cnc(CN4CCCC4)n3CCF)cc2)C(=O)C[C@@H](Cc2ccccc2)C(=O)N(C)[C@@H](C)CNC(=O)C[C@H](Cc2ccc(Cl)cc2)N(C)C1=O` [Compound 303, (2S,5S,8S,13S,16R)-16-benzyl-1-(4-chloro-2-(4-(1-(2-fluoroethyl)-2-(pyrrolidin-1-ylmethyl)-1H-imidazol-5-yl)phenoxy)benzyl)-8-(4-chlorobenzyl)-5-(methoxymethyl)-2,7,13,14-tetramethyl-1,4,7,11,14-pentaazacyclooctadecane-3,6,10,15,18-pentaone] yielded a Max % inhibition of 52.60% and an IC50 of 2.9 nM.
Compound `COC[C@@H]1NC(=O)[C@H](C)N(Cc2ccc(Cl)cc2Oc2ccc(-c3cnc(CN(C)C)n3C)cc2)C(=O)CC(Cn2ccccc2=O)C(=O)N(C)[C@H]2CCCC[C@@H]2NC(=O)C[C@H](Cc2ccc(Cl)cc2)N(C)C1=O` (stereo partly drawn) [Compound 276, (4S,7S,10S,16aS,20aS)-11-(4-chloro-2-(4-(2-((dimethylamino)methyl)-1-methyl-1H-imidazol-5-yl)phenoxy)benzyl)-4-(4-chlorobenzyl)-7-(methoxymethyl)-5,10,16-trimethyl-14-((2-oxopyridin-1(2H)-yl)methyl)hexadecahydrobenzo[l][1,4,7,11,14]pentaazacyclooctadecine-2,6,9,12,15(3H)-pentaone] has a Max % inhibition of 101.53% and an IC50 of 16.4 nM.
